Values after ≈ are worked out from the molar mass of the structure shown. A value given as a limit tells only on which side of the number the result lay.

A short description of assay [1]: Chemoprevention index, ratio of IC50 for mouse Hepa-1c1c7 cells to drug level required to double NADPH:quinone reductase activity in mouse Hepa-1c1c7 cells. It is filed as functional.
A short description of assay [2]: Inhibition of mouse Hepa-1c1c7 cells assessed as cell viability. It is filed as cell-based.

What is called IC50 is the concentration at which inhibition is half-maximal. For the molecule `COc1cc(OC)c2c(c1C=O)O[C@H](c1ccccc1)CC2=O`, in assay [1], the Ratio is reported as greater than 3.9. The IC50 in assay [2] is greater than 10 µg/mL.

With `CC1=C[C@@H]2[C@@H](CC1)[C@](C)(O)CC[C@H]2C(C)C`, the Ratio in assay [1] was greater than 2.2. Moreover, in assay [2], the IC50 is greater than 5 µg/mL.

`CO/C(=C\C(=O)c1c(OC)cc2c(c1OC)C=CC(C)(C)O2)c1ccccc1`: the Ratio in assay [1] stood at 8. Further, the IC50 in assay [2] is 9.6 µg/mL (≈ 25.2 µM).

As for `C=C(C)[C@@H](O)Cc1c(OC)cc(OC)c2c1O[C@H](c1ccccc1)CC2=O`, the Ratio in assay [1] came to 4.4. In assay [2], the 50% inhibitory concentration (IC50) was found to be 19.3 µg/mL (≈ 52.4 µM).

For the molecule `COc1cc2c(c3oc(-c4ccccc4)cc(=O)c13)C=CC(C)(C)O2` [CANDIDIN], the Ratio in assay [1] is 1. Moreover, the half-maximal inhibitory concentration (IC50) in assay [2] turned out to be 4.5 µg/mL (≈ 13.5 µM).

For the molecule `COc1cc(OC)c2c(c1CC=C(C)C)O[C@H](c1ccccc1)CC2=O` [CANDIDONE], the Ratio in assay [1] is 0.9. Besides, the IC50 in assay [2] was determined as 4.1 µg/mL (≈ 11.6 µM).

Turning to `COc1cc2c(c(OC)c1C(=O)CC(=O)c1ccc3c(c1)OCO3)C=CC(C)(C)O2` [PONGAPINONE A], in assay [1], the Ratio was 4.8. For the same molecule, the IC50 in assay [2] was determined as 23.8 µg/mL (≈ 58 µM).

For the molecule `COc1cc(OC)c2c(c1CC=C(C)C)O[C@H](c1ccc3c(c1)OCO3)CC2=O` [PONGAPINONE B], in assay [1], the Ratio was 7.6. The IC50 in assay [2] was 19.1 µg/mL (≈ 48.2 µM).

With `COc1cc2c(c(OC)c1C(=O)/C=C(\O)c1ccccc1)C=CC(C)(C)O2` [PRAECANSONE B], the Ratio in assay [1] turned out to be 1.8. In assay [2], the IC50 amounted to 6.5 µg/mL (≈ 17.7 µM).

For `C[S+]([O-])CCCCN=C=S` (stereo not given) [SULFORAPHANE], the Ratio in assay [1] was determined as 24.1. Moreover, the IC50 in assay [2] turned out to be 2.1 µg/mL (≈ 11.8 µM).

For the origin of these results see ChEMBL document CHEMBL1146593, “Constituents of the stem bark of Pongamia pinnata with the potential to induce quinone reductase” (J Nat Prod, 2003).
